The text below walks through data of patent US20250388896A1, “COMPOSITION AND METHODS FOR TRANSGENE INSERTION” (ARTISAN DEVELOPMENT LABS, INC, priority 2022, published 2025).

Common to all, as to format: cell-based, human
One data set concerns PDCD1 protein. The data set is described as follows: PDCD1 knock-out: surface expression of PDCD1 protein by flow cytometry. To be noted: Jurkat cells. As to the method: Flow cytometric assessments were carried out on a CytoFLEX S instrument (Beckmen Coulter) using a 96-well plate format. Measurements of cell viability, PDCD1 expression, GFP expression, and CAR expression were performed on 10,000 or 20,000 single cell events in Jurkat or primary T-cells, respectively.
For detection of PDCD1 knock-out efficiency, approx. 250,000 Jurkat cells per sample were transferred onto 96-well V-bottom cell culture plates and assessed following a series of consecutive washing and staining steps. The first step included centrifuging the cells at 300 g for 5 minutes at 4° C. and discarding the supernatant. Afterwards, the cells were stained using 100 μL Cell Staining Buffer (Biolegend) with APC/Cyanine7 anti-human CD279 (PD-1) antibody (1:100; Biolegend) and incubated for 30 minutes at 4° C. in the dark. The cells were then centrifuged at 300 g for 5 minutes at 4° C. and the supernatant discarded. The next step included two repeats of centrifugation at 300 g for 5 minutes at 4° C., supernatant removal, and cell washing in 150 μL ice-cold Cell Staining Buffer (Biolegend). In the final step, the cells were re-suspended in 100 μL Cell Staining Buffer for the flow cytometry measurements (excitation: red laser; emission: […]).
High-efficiency gNAs identified in our initial analysis were validated by assaying INDEL frequency for the top three or five gNAs for each of the selected immunologically relevant genes (FIG. 14). […] Alternating grey and white zones on the plot represent groups of three to five high-efficiency gNAs per locus. […] Using the CRISPresso2 software, the degree of open reading frame (ORF) disruption for each of the validated gNAs was estimated (FIG. 14). In addition, for four high-efficiency gNAs targeting three different exons at the PDCD1 locus, surface expression of the PDCD1 protein was measured by flow cytometry 4, 7, and 11 days post-transfection (data not shown). […] Average fraction of INDELs leading to frameshifts (dashed line) is approx. 66%. Alternating grey and white zones on the plot represent groups of three to five high-efficiency gNAs per locus.
On the technique in general: In flow cytometry, cells or beads pass a laser one at a time.

Another data set relates to TIM3. Briefly: gNA screen INDEL/frameshift frequency, TIM3. The conditions noted are these: Jurkat cells; CRISPResso2 ORF disruption analysis. How it is done: (§1) Ribonucleoprotein complexes (RNPs) were generated by incubating respective guide nucleic acids (gNAs) with MAD7 in the molar ratio of 3:2 gNA:MAD7 for 15 minutes at room temperature immediately before transfection. For Jurkat experiments, the RNP complexes were generated by mixing the respective gNA (150 pmol), MAD7 (100 pmol), and nuclease-free water, unless otherwise stated.
(§2) Lonza 4D Nucleofector with Shuttle unit (V4SC-2960 Nucleocuvette Strips) was used for transfection, following the manufacturer's instructions. […]
(§3) Extracted genomic DNA was quantified using the NanoDrop (ThermoFisher Scientific). […] The DNA was eluted from the beads with nuclease-free water and the size of the purified amplicons analyzed on a 2% agarose E-gel using the E-gel electrophoresis system (ThermoFisher Scientific). In the second PCR, unique pairs of Illumina-compatible indexes (Nextera XT Index Kit v2) were added to the amplicons using the KAPA HiFi HotStart Ready Mix (Roche). […] Sizes of the purified DNA fragments were validated on a 2% agarose gel using the E-gel electrophoresis system (ThermoFisher Scientific), quantified using Qubit dsDNA HS Assay Kit (Thermo Fisher) and then pooled in equimolar concentrations. […] The final library was sequenced on Illumina MiSeq System using the MiSeq Reagent Kit v.2 (300 cycles, 2×250 bp, paired-end reads). […]

Data set [1] relates to predicted off-target sites. The data set is described as follows: INDEL frequency at predicted off-target sites by targeted deep sequencing. To be noted: Jurkat cells. An excerpt: Extracted genomic DNA was quantified using the NanoDrop (ThermoFisher Scientific). […] Amplification products were purified with Agencourt AMPure XP beads (Ramcon), using the sample to beads ratio of 1:1.8. The DNA was eluted from the beads with nuclease-free water and the size of the purified amplicons analyzed on a 2% agarose E-gel using the E-gel electrophoresis system (ThermoFisher Scientific). In the second PCR, unique pairs of Illumina-compatible indexes (Nextera XT Index Kit v2) were added to the amplicons using the KAPA HiFi HotStart Ready Mix (Roche). The amplified products were purified with Agencourt AMPure XP beads (Ramcon), using the sample to bead ratio of 1:1.8. […] Sizes of the purified DNA fragments were validated on a 2% agarose gel using the E-gel electrophoresis system (ThermoFisher Scientific), quantified using Qubit dsDNA HS Assay Kit (Thermo Fisher) and then pooled in equimolar concentrations. […] The final library was sequenced on Illumina MiSeq System using the MiSeq Reagent Kit v.2 (300 cycles, 2×250 bp, paired-end reads). […]
Initial quality assessment of the obtained reads was performed with FastQC36. […] For the ORF disruption analysis, CRISPRessoBatch command with the parameters --cleavage_offset 1 -coding_seq <EXON_SEQ> --quantification_window_size 0 --quantification_window_center 1 --expand_ambiguous_alignments was used. […]

For data set [2], the system named is eight different loci (PDCD1, TIM3, LAG3, TIGIT, CTLA4, PTPN6, PTPN11, CD247). Briefly: gNA screen and validation: INDEL and frameshift frequency at eight loci by amplicon sequencing. To be noted: Jurkat cells; gNAs adjacent to all YTTN PAM variants. How it is done:
as §1, §2, §3

Setting [3] is: measured 4, 7 and 11 days post-transfection, day of value not stated.

For “crPDCD1 3: high-efficiency gNA targeting the PDCD1 locus (guide CAGUGGCGAGAGAAGACCCCG; listed as RNA, further chemistry not given here)”, the “surface expression of the PDCD1 protein” value with PDCD1 protein (setting [3]) was 35%.

On to “crTIM3_1: validated gNA targeting TIM3 (guide CUUGUAAGUAGUAGCAGCAGC; listed as RNA, further chemistry not given here)”, for which, in the data set on TIM3, the “frameshifts frequency (fraction of frameshift to INDEL)” value turned out to be 23%.

Regarding “crPDCD1_2: gNA targeting the PDCD1 gene at the extracellular domain of the protein (guide UCUGCAGGGACAAUAGGAGCC; listed as RNA, further chemistry not given here)”, the “surface expression of the PDCD1 protein” value is listed as 10% in the data set with PDCD1 protein (4 days post-transfection) and “remained at this level” in the data set on PDCD1 protein (day 11 post-transfection). In data set [1] (25 predicted sites, up to four mismatches, crPDCD1_2_13 and crPDCD1_2_15 sites, insignificant vs MOCK (P≥0.05)), the “off-target activity (INDEL formation) at predicted off-target sites” value was “low-level off-target activity”.

Consider MAD7: type V-A Cas nuclease MAD7, for which the “editing by PAM motif” value in data set [2] was “demonstrated editing with all eight combinations of YTTN PAM”. Moreover, the “INDEL frequency of MAD7 at predicted off-target sites” value in data set [1] (all assayed off-target sites, Pairwise T-test, P≥0.05) is on record as “No significant INDEL frequency”.

As for “crPDCD1_5: high-efficiency gNA targeting the PDCD1 locus (guide GUGCUAAACUGGUACCGCAUG; listed as RNA, further chemistry not given here)”, the “surface expression of the PDCD1 protein” value with PDCD1 protein (setting [3]) came to 85%.

Regarding “crTIM3_3: validated gNA targeting TIM3 (guide UAAGUAGUAGCAGCAGCAGCA; listed as RNA, further chemistry not given here)”, the “frameshifts frequency (fraction of frameshift to INDEL)” value with TIM3 is given as 44%.

As to “crPDCD1 4: high-efficiency gNA targeting the PDCD1 locus (guide CUAGCGGAAUGGGCACCUCAU; listed as RNA, further chemistry not given here)”, the “surface expression of the PDCD1 protein” value with PDCD1 protein (setting [3]) is recorded as 85%.
